Reference: US20230150951A1, “2,5- OR 2,6-DISUBSTITUTED HYDROQUINONE DERIVATIVES WITH AT LEAST ONE CARBOXY, SULFO OR AMIDO GROUP USEFUL AS MEDICAMENTS” (OM PHARMA SA, priority 2020, published 2023)
Where two headings read alike, the source gives them in different places.

Tests used:
IL-4 = experiment: Cytokine release after LPS induction on human whole blood: IL-4; type: cell-based
Experimental: (§1) Aim of this in vitro method is to assess compounds effects on release of a panel of cytokines from whole blood following lipopolysaccharide (LPS) induced inflammatory reaction. Whole blood was incubated with compounds for 1 h prior to LPS induction. Cytokine levels in blood were measured using a multiplex FACS-based panel.
(§2) IC50 values determined for the tested compounds expressed in microM [μM] and the values for the inhibition of cytokines were listed for each compound.
(§3) Effect on cytokines release after LPS induction was performed on the compounds dissolved in DMSO or H2O to reach 10-fold concentrated stock solutions and dissolved in culture media.
(§4) Test system: Whole blood was removed from a single donor (into lithium heparin coated tubes; BD Vacutainer; 367886) and diluted 1:5 with RPMI 1640 (Thermo Fisher, 61870036). Within 30 minutes of sampling, blood was incubated with compounds for 1 h prior to LPS stimulation (O111:B4—Sigma L4391; 10 ng/ml final concentration). Stimulation continued under standard cell culture conditions (37° C. with 5% CO2) overnight (18 h), after which plates were centrifuged and supernatant removed and frozen at −80° C. until used for analyses.
(§5) Dilution of test compounds: 10×concentrated solutions (concerning to the final assay concentrations) of each test compound were prepared with the appropriate solvent (in DMSO or in water). These 10× compound solutions (10 μl) were then added to 90 μl pre-diluted whole blood (whole blood: RPMI1640, 1:5) resulting in the final assay concentration.
(§6) Test method: Diluted whole blood (80 μl) was pre-incubated with compounds (10 μl) to give final assay concentrations of 100, 30, 10, 3, 1, 0.3 and 0.1×10^−6M. Blood was incubated at 37° C. with 5% CO2 for 1 h. LPS was diluted in cell culture media to a concentration of […]; 10 μl was added to the whole blood to give a final concentration of 10 ng/ml. Plates were incubated at 37° C. for 18 h. Plates were centrifuged at 3,000 RPM for 5 minutes at 4° C. and supernatant removed and frozen at −80° C. until FACS analysis was carried out.
(§7) Cytokine release was measured using a custom multiplex system (ELISA Genie) according to manufacturers instructions. Prepared samples were run on an Attune NxT flow cytometer (Thermo Fisher).
(§8) Quantification of cytokine release inhibition: known concentration standards were run as part of the cytokine panel to allow quantification of each cytokine concentration in each sample. This was carried out using FCAP Array v3.0 software.
(§9) Results: The dose response relationship on cytokine release following LPS induction of inflammatory response in whole blood was assessed for all compounds. IC50 values were determined for each compound for a panel of cytokines (GM-CSF, IFN-gamma, IL-1beta, IL-2, IL-4, IL-5, IL-6, IL-8, IL-9, IL-10, IL-12p40, IL-13, IL-17A, IL-17F, IL-18, IL-21, IL-22, IL-33, TGF-beta, TNF-alpha, TNF-beta).

IL-5 = experiment: Cytokine release after LPS induction on human whole blood: IL-5; type: cell-based
Experimental: as §1, §2, §3, §4, §5, §6, §7, §8, §9

[1] = system: STZ-induced diabetes model; experiment: STZ-induced diabetic nephropathy, kidney disease and retinopathy model (28 days treatment); details: for Serum TNF-α / Retina vasculature coverage / Kidney collagen levels (Masson's Trichrome): 28 days; for Serum TNF-α: p<0.05; for Retina vasculature coverage: retinal flat mounts, FITC-dextran; for Kidney collagen levels (Masson's Trichrome) / Blood glucose levels on day 28 / Blood urea nitrogen levels: vs induced vehicle controls; for Blood glucose levels on day 28: IV; for Blood urea nitrogen levels / Mean day 28 blood glucose Concentration (mmol/L) (SD): day 28; for Blood BUN / Disease Score (kidney, H&E) / Eye area (retinal flatmount area covered by vasculature) / Trichrome staining (Kidney fibrosis) / Blood CRP / Blood IL-6 / Blood TGF-beta / Blood TNF-alpha / Urine albumine creatinine ratio (ALB:CRE): day 28 of treatment (week 9); for Blood BUN / Disease Score (kidney, H&E) / Eye area (retinal flatmount area covered by vasculature) / Trichrome staining (Kidney fibrosis) / Blood CRP / Blood IL-6 / Blood TGF-beta / Blood TNF-alpha / Mean day 0 blood glucose Concentration (mmol/L) (SD) / Mean day 28 blood glucose Concentration (mmol/L) (SD) / Urine albumine creatinine ratio (ALB:CRE): 15 mg/kg IV, Captopril 50 mg/kg PO; for Blood CRP / Blood IL-6 / Blood TGF-beta / Blood TNF-alpha: serum; for Urine ALB:CREA: treatment day 28; for Urine albumine creatinine ratio (ALB:CRE): urine pooled per group
Experimental: A total of 70 female CD-1 mice aged 5-7 weeks weighing approximately 25-30 g were used for the study. These were purchased from Charles River, UK and had 7 days acclimatization period. Animals were housed in IVC cages (up to 5 per cage) with individual mice identified by tail mark. All animals were allowed free access to a standard certified commercial diet and sanitised water during the study. The holding room was maintained under standard conditions: 18-24° C., 55-70% humidity and a 12 h light/dark cycle.
Mice were starved for 6 hours prior to injection. One week after completion of induction glucose levels were monitored and mice with levels less than 15 mml/L (280 mg/gL) were removed from the study as they had not developed the ideal severity of diabetes. Glucose levels were be monitored weekly and 5 weeks after STZ induction biochemical assessment of renal injury was carried out by measuring urine albumin and creatinine levels and confirming they were within the desired range. After successful completion of this stage animals were assigned to treatment groups.
Treatment continued for 4 weeks (28 days) with weekly measurement of blood glucose and urine albumin/creatinine. The study schedule is detailed below looking at weekly (week 5 to 9) blood glucose levels, urine albumin creatinie ratios, and terminal (week 9) blood chemistry and cytokines, kidney histology and eye-retinal leakage.
Urine Albumin: Creatinine (ALB: CRE): Urine was collected weekly and pooled for each treatment group.
ELISAs: At the end of the treatment period blood was collected and processed to serum. Serum levels of CRP, TGF-β, IL-6 and TNF-α were quantified using commercially available ELISA kits, results are shown in Table 56.

[2] = Homo sapiens, LPS 10 ng/ml, 18 h, read-out: Whole Blood: IL-4 IC50
[3] = human whole blood, inhibition of LPS induced inflammation, read-out: IC50 IL-4
[4] = Homo sapiens, LPS 10 ng/ml, 18 h, read-out: Whole Blood: IL-5 IC50
[5] = human whole blood, inhibition of LPS induced inflammation, read-out: IC50 IL-5

SMILES	IC50 (IL-4; [2]) [µM]	IC50 (IL-4; [3]) [µM]	IC50 (IL-5; [4]) [µM]	IC50 (IL-5; [5]) [µM]	other results
O=C(O)Cc1cc(O)c(C(=O)Nc2ccccc2-c2nnn[nH]2)cc1O [IIIa-001aTz]	> 100	100	> 100	100	
O=C(O)Cc1cc(O)c(C(=O)Nc2c(C(=O)O)cccc2C(=O)O)cc1O [IIIa-013a, 2-(4-(carboxymethyl)-2,5-dihydroxybenzamido)isophthalic acid]	> 100	100	> 100	100	
CC(=O)N(Cc1cc(O)c(C(=O)O)cc1O)Cc1cc(O)c(C(=O)O)cc1O [IIIc-057a, N,N-Bis(4-carboxy-2,5-dihydroxyphenylmethyl)acetamide]	> 100	100	> 100	100	
O=C(O)c1cc(O)c(CN(Cc2cc(O)c(C(=O)O)cc2O)Cc2cc(O)c(C(=O)O)cc2O)cc1O [IIIc-061a, Tris(4-carboxy-2,5-dihydroxyphenylmethyl)amine]	> 100	100	> 100	100	Serum TNF-α [1]: significantly lower than vehicle induced controls; Retina vasculature coverage [1]: significantly decreased; Kidney collagen levels (Masson's Trichrome) [1]: significantly decreased; Blood glucose levels on day 28 [1]: reduction in blood glucose levels, however this did not reach statistical significance; Blood urea nitrogen levels [1]: significantly lower than induced vehicle controls; Blood BUN [1]: 22.5 ± 4.1; Disease Score (kidney, H&E) [1]: 8 ± 1; Eye area (retinal flatmount area covered by vasculature) [1]: 9.1 ± 1.1; Trichrome staining (Kidney fibrosis) [1]: 1.54 ± 0.55; Blood CRP [1]: 5963 ± 849; Blood IL-6 [1]: 117.59 ± 29.21; Blood TGF-beta [1]: 17.35 ± 2.09; Blood TNF-alpha [1]: 324.6 ± 43.6; Urine ALB:CREA [1]: reduced
O=C(O)c1ccccc1CNC(=O)c1cc(O)cc(C(=O)O)c1O [IIa-053a, 3-(2-Carboxyphenylmethylaminocarbonyl)-2,5-dihydroxybenzoic acid]	> 100	100	> 100	100	
O=C(O)c1cc(NC(=O)c2cc(O)cc(C(=O)Nc3ccc(O)c(C(=O)O)c3)c2O)ccc1O [IIc-007a, 5-(3-(3-carboxy-4-hydroxyphenylaminocarbonyl)-2,5-dihydroxybenzamido)-2-hydroxy benzoic acid]	> 100	100	> 100	100	
O=C(O)c1cc(O)ccc1NC(=O)c1cc(O)cc(C(=O)Nc2ccc(O)cc2C(=O)O)c1O [IIc-009a, 2-(3-(2-carboxy-4-hydroxyphenylaminocarbonyl)-2,5-dihydroxybenzamido)-5-hydroxyl benzoic acid]	> 100	100	> 100	100	
O=C(O)c1cc(O)cc(CSCc2cc(O)cc(C(=O)O)c2O)c1O [IVc-058a, 3-((2,5-Dihydroxy-3-carboxyphenyl)methylthiomethyl)-2,5-dihydroxybenzoic acid]	> 100	100	> 100	100	
O=C(O)c1cc(O)cc(CS(=O)(=O)Cc2cc(O)cc(C(=O)O)c2O)c1O [IVc-059a, 3-((2,5-Dihydroxy-3-carboxyphenyl)methylsulfonylmethyl)-2,5-dihydroxybenzoic acid]	> 100	100	> 100	100	Retina vasculature coverage [1]: significantly decreased; Kidney collagen levels (Masson's Trichrome) [1]: significantly decreased; Blood glucose levels on day 28 [1]: significant reduction; Mean day 0 blood glucose Concentration (mmol/L) (SD) [1]: 24.3 (6.4) mmol/L; Mean day 28 blood glucose Concentration (mmol/L) (SD) [1]: 23.7 (6.6) mmol/L; Blood urea nitrogen levels [1]: significantly lower than induced vehicle controls; Blood BUN [1]: 22.5 ± 2.8; Disease Score (kidney, H&E) [1]: 7 ± 1; Eye area (retinal flatmount area covered by vasculature) [1]: 8.7 ± 1.2; Trichrome staining (Kidney fibrosis) [1]: 1.48 ± 0.73; Blood CRP [1]: 5691 ± 1395; Blood IL-6 [1]: 120.88 ± 23.05; Blood TGF-beta [1]: 13.47 ± 3.33; Blood TNF-alpha [1]: 350.2 ± 41.4; Urine albumine creatinine ratio (ALB:CRE) [1]: 18.85; Urine ALB:CREA [1]: reduced
COC(=O)c1cc(OC(C)=O)cc(CS(=O)(=O)Cc2cc(OC(C)=O)cc(C(=O)OC)c2OC(C)=O)c1OC(C)=O [IVc-059a-E2-A4]	> 100	100	> 100	100	
O=C(O)c1cc(O)c(C(=O)Nc2ccccc2C(=O)O)cc1O [Ia-001a, 4-(2-carboxyphenylaminocarbonyl)-2,5-dihydroxybenzoic acid]	> 100	100	> 100	100	Serum CRP ([1]; 28 days of treatment, vs vehicle induced controls): significantly reduced; Serum TNF-α [1]: significantly lower than vehicle induced controls; Mean day 0 blood glucose Concentration (mmol/L) (SD) [1]: 25.7 (6.3) mmol/L; Mean day 28 blood glucose Concentration (mmol/L) (SD) [1]: 31.6 (3.8) mmol/L; Blood BUN [1]: 25.1 ± 3.1; Disease Score (kidney, H&E) [1]: 7 ± 1; Eye area (retinal flatmount area covered by vasculature) [1]: 9.9 ± 1.9; Trichrome staining (Kidney fibrosis) [1]: 1.87 ± 0.65; Blood CRP [1]: 4759 ± 1181; Blood IL-6 [1]: 114.16 ± 29.96; Blood TGF-beta [1]: 15.54 ± 2.8; Blood TNF-alpha [1]: 342.3 ± 15.6; Urine albumine creatinine ratio (ALB:CRE) [1]: 35.68
O=C(O)c1cc(O)c(C(=O)Nc2ccccc2S(=O)(=O)O)cc1O [Ia-001c, 2,5-dihydroxy-4-(2-sulfophenylaminocarbonyl)benzoic acid]	> 100	100	> 100	100	
O=C(O)c1cc(O)c(C(=O)Nc2ccc(-c3nnn[nH]3)cc2)cc1O [Ia-003a-Tz, 4-(4-(1H-tetrazol-5-yl)phenyl-aminocarbonyl)-2,5-dihydroxybenzoic acid]	> 100	100	> 100	100	
O=C(O)c1cc(NC(=O)c2cc(O)c(C(=O)O)cc2O)cc(C(=O)O)c1 [Ia-015a, 5-(4-carboxy-2,5-dihydroxybenzamido)isophthalic acid]	> 100	100	> 100	100	
CCOC(=O)c1cc(NC(=O)c2cc(O)c(C(=O)OCC)cc2O)cc(NC(=O)c2cc(O)c(C(=O)OCC)cc2O)c1 [Ib-010a-E3, ethyl 3,5-bis(2,5-dihydroxy-4-ethoxycarbonylbenzoylamino)benzoate]	> 100	100	> 100	100	
O=C(Nc1ccccc1-c1nnn[nH]1)c1cc(O)c(C(=O)Nc2ccccc2-c2nnn[nH]2)cc1O [Ic-001aTz2, N1,N4-bis(2-(1H-tetrazol-5-yl)phenyl)-2,5-dihydroxyterephthalamide]	> 100		> 100		
